Measurements from patent publication US7915251B2, “Alpha-helix mimetics and methods relating to the treatment of fibrosis” (Institute for Chemical Genomics, priority 2005, dated 2011).

Assays:
[1] = test system: collagen 1A2; test: RT-PCR for collagen 1A2 in bleomycin treated mice; assay type: in vivo; details: ICG-001 5 mgs/Kg/day s.c.
[2] = test system: S100A4; test: S100A4 expression in IPF patient fibroblasts (Western blot on whole cell lysates); assay type: cell-based, human
Protocol: (§1) Western blots for S100A4 (also know as FSP-1 or fibroblast specific protein-1) and E-Cadherin were performed on whole cell lysates.

[3] = test system: E-Cadherin; test: E-Cadherin expression in IPF patient fibroblasts (Western blot on whole cell lysates); assay type: cell-based, human; details: RPMI 1640+10% FBS, 2 days
Protocol: as §1

[4] = test system: C57/B16 mice treated with intratracheal bleomeycin; test: Bleomycin induced murine pulmonary fibrosis model (lung sections, trichrome stain, body weight, survival); assay type: in vivo
Protocol: Murine models of bleomycin induced fibrosis have been developed in order to study fibrotic disease progression.
There is an absence of airway epithelium in lower left compared to upper left (see arrow heads) and extensive collagen deposition (lower left). On the sixth day, either saline (upper right) or ICG-001 (5 mgs/Kg/day) was administered for 10 days after which the mice were sacrificed and sectioned. Of interest is the upper right (saline treatment) showing lack of normal airway epithelialization, extensive collagen deposition and intra-airway hypercellularity (fibroblasts and inflammatory influx).

[5] = test system: S100A4; test: RT-PCR for S100A4 in bleomycin treated mice; assay type: in vivo; details: ICG-001 5 mgs/Kg/day s.c.
[6] = target: β-catenin/CBP interaction (Homo sapiens, UniProt Q92793); details: cited from earlier work
Chain of β-catenin/CBP interaction (Q92793 whole entry): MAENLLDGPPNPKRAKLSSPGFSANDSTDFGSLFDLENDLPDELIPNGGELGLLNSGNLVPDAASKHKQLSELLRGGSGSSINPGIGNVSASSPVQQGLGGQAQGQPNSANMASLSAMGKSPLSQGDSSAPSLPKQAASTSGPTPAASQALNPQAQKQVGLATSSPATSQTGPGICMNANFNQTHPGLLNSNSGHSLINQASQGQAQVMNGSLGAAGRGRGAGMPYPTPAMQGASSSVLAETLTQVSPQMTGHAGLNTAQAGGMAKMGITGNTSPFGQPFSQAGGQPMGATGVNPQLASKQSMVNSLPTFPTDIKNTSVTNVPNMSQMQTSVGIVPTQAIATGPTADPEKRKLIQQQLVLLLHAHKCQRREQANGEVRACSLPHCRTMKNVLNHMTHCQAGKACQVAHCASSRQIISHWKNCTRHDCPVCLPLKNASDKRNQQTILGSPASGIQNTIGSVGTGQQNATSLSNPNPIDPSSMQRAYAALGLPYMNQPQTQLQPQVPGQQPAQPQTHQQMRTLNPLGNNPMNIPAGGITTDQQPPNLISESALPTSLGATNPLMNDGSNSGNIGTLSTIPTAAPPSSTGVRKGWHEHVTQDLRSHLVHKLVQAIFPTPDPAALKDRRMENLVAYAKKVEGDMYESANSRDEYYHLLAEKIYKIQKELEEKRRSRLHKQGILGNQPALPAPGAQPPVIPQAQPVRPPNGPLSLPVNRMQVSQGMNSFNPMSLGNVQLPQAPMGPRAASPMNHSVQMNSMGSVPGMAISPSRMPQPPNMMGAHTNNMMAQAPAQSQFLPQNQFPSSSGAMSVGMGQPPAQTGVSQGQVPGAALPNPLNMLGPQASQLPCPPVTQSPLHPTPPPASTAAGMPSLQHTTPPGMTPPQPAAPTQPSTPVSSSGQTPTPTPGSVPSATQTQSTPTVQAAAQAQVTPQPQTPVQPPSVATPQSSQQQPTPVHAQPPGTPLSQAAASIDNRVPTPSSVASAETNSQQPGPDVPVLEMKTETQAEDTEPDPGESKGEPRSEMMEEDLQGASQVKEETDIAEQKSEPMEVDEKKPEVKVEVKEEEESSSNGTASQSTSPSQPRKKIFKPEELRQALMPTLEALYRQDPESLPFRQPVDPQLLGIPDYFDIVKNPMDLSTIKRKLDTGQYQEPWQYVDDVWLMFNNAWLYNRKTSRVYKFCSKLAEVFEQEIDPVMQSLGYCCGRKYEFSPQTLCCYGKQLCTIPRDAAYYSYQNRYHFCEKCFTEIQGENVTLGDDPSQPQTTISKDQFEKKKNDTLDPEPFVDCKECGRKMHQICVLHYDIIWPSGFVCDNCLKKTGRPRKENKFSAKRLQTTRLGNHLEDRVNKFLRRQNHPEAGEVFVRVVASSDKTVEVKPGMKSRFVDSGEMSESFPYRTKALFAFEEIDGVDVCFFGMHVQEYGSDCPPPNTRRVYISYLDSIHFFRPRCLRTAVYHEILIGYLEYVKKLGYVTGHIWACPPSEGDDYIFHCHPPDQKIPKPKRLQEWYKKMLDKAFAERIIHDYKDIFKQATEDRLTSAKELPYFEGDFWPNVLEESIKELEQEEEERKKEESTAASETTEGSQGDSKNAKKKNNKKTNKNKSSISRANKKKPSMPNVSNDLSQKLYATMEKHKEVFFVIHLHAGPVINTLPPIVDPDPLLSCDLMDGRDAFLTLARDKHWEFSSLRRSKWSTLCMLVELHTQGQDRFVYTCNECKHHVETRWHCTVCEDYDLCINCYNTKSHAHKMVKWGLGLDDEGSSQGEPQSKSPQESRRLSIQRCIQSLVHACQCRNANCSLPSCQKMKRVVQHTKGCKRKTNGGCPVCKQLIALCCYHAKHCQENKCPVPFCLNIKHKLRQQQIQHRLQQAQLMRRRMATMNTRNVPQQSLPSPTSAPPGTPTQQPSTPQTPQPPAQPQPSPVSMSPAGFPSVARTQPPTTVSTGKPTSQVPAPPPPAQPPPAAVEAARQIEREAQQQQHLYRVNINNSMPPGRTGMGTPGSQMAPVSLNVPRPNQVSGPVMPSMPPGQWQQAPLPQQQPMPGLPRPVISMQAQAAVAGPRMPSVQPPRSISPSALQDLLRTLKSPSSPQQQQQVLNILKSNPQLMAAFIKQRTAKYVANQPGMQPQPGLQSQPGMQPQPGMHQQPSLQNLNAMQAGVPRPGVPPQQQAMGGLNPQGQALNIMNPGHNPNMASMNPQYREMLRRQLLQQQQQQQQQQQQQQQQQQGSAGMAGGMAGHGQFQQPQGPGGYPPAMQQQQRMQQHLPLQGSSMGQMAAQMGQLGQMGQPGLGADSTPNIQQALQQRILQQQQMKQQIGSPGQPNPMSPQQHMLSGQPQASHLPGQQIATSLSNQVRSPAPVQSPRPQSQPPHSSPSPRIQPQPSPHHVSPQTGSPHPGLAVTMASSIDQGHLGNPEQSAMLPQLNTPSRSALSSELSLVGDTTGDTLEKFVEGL

[7] = bleomycin 5 days, then ICG-001 5 mgs/Kg/day for 10 days from the sixth day
[8] = bleomycin 5 days, then ICG-001 5 mgs/Kg/day for 10 days, untreated controls did not

With `O=C1[C@H](Cc2ccc(O)cc2)N2C(=O)CCN(C(=O)NCc3ccccc3)[C@H]2CN1Cc1cccc2ccccc12` [ICG-001] the “collagen 1A2 message (RT-PCR)” value [1] was “reduced essentially to negative control”, the “S100A4 expression at the mRNA level” value [2] was “this is also true at the mRNA level” and the “S100A4 expression (Western blot)” value ([2]; RPMI 1640+10% FBS, 2 days) was “decreased”. The “E-cadherin expression (Western blot)” value [3] was “increased”, the “airway appearance in lung sections” value [4, 7] was “essentially normal” and the “collagen levels (trichrome stain)” value [4, 7] was “normal collagen levels”. For the same compound, the body weight [4, 8] was “regained normal body weight”, the survival [4, 8] was “survived” and the “disease progression, as judged by reduced mortality, histopathology and endogenous gene expression” value ([4]; murine bleomycin model of pulmonary fibrosis, 5 mg/Kg/day) was “not only halts but reverses disease progression”. The “S100A4 message (RT-PCR)” value [5] was “reduced essentially to negative control” and the “effect on β-catenin/CBP interaction” value [6] was “selectively blocks”.
